From patent US6638916B1, “Use of sulfated oligosaccharides as inhibitors of cardiovascular disease” (The Australian National University, priority 1997, dated 2003)
Marks after values point to notes of the source that are not given here.

Key:
[1] = system: vascular intimal hyperplasia; assay: Balloon dilation model of vascular intimal hyperplasia (carotid artery); format: in vivo, rat
From the text: In the second procedure, a traditional balloon dilation model, based essentially on the method described by Clowes et al.^8 was used. Thirteen male Wistar rats (16-20 weeks of age) were anaesthetised (avertin) and the left common carotid artery exteriorised via a ventral midline incision. A padded vascular clamp was applied to the most caudal end of the exteriorised artery. Following arteriotomy a 2 F Fogarty balloon catheter was inserted into the carotid artery, the vascular clamp removed and the catheter advanced 1-1.5 cm in a caudal direction. The balloon was inflated using a 0.12 cc of air and the catheter was withdrawn to the point of arterial insertion. The balloon was then deflated and this procedure was repeated twice more. On the third withdrawal the balloon was deflated, the catheter removed from the artery and simultaneously a padded vascular clamp applied immediately caudal to the arteriotomy but leaving room for the subsequent application of a ligature (5/0 silk). […]
In the second procedure employing the balloon dilation model, the degree of vascular intimal hyperplasia was calculated as a percentage of the total area of the vessel cross-section. Specifically, the percentage of hyperplasia was determined to be the area of the tunica intima divided by the cross-sectional area of the artery.

[2] = system: saponin-induced vascular hyperplasia; assay: Saponin-induced vascular hyperplasia model (carotid artery endothelial denudation); format: in vivo, rat; conditions: for effect on saponin-induced smooth muscle cell hyperplasia (histology, in words): rat carotid artery 14 days after saponin denudation, 35 mg/kg/day days 1 to 14 by miniosmotic pump, 35 mg/kg/day
Experimental: In order to induce vascular hyperplasia two procedures were used. In the first procedure, male Fisher 344 rats (18→30 weeks of age) were anaesthetised and approximately a 1 cm length of one of the carotid arteries exteriorised by dissection. The 1 cm arterial segment was clamped at both ends with padded artery clamps. A small volume of saponin solution (0.5 mg/ml in PBS) was injected, via a 30 gauge needle, into the arterial segment, left for 2 min and then withdrawn by suction. The 1 cm arterial section was ligated (5/0 silk) on each side of the needle hole and the arterial clamps removed, the artery reinteriorised and the wound sutured. On the following day animals were divided into control and treatment groups. The treatment group received the sulfated oligosaccharide, sulfated mannopentaose phosphate (PI-88) at a dose of 35 mg/kg/day for the next 14 days delivered via subcutaneously implanted miniosmotic pumps (Alzet 2ML2). Control animals were given the miniosmotic pumps containing saline. After 2 weeks the animals were anaesthetised (pentobarbitone), perfused with 10% buffered formalin for 20 minutes, euthanised (Pentobarbitone) and the denuded arterial segments were removed and processed for histological examination. The degree of intimal hyperplasia was determined using digital image analysis.
The saponin-induced vascular hyperplasia model used in this study is a new procedure which has several important features which should be highlighted. First, brief exposure to the detergent saponin is used to denude the arterial wall of endothelial cells. Such a procedure is similar to the endothelial denudation resulting from balloon angioplasty. Second, massive vascular smooth muscle hyperplasia is observed in the saponin-treated carotid artery 14 days after saponin exposure (FIG. 1) when compared with the carotid artery from an untreated control animal (FIG. 2). In fact, almost complete occlusion of the blood vessel is observed in the saponin-treated vessel (FIG. 1). Third, based on control experiments, the saponin-induced vascular hyperplasia model represents an excellent system for screening of drugs which inhibit vascular hyperplasia, a process which occurs in atherosclerotic plaques and in angioplasty-associated restenosis.

For “sulfated mannopentaose phosphate [PI-88]”, the “effect on vascular intimal hyperplasia (in words)” value ([1]; balloon dilation model, 35 mg/kg/day via miniosmotic pumps) was “statistically significant (P=0.0008) reduction in vascular intimal hyperplasia”, the Percentage of neointima ([1]; male Wistar rats, balloon catheter dilation of left common carotid artery, 35 mg/kg/day for two weeks via subcutaneous miniosmotic pump, area of tunica intima divided by cross-sectional area of artery, saline control 57.66) was 36.02^a % and the “Arterial Wall Thickness” value ([2]; male Fisher 344 rats, saponin denudation of carotid artery, 35 mg/kg/day for 14 days via subcutaneous miniosmotic pump, mean ± SEM, P = 0.08 vs control) was 266.7 ± 27.7^b μm. For the same substance, the “Arterial Wall Thickness % Control” value ([2]; male Fisher 344 rats, saponin denudation, 35 mg/kg/day for 14 days via miniosmotic pump, saline control = 100, mean ± SEM, P = 0.08) was 66.4 ± 6.9^b %, the “effect on saponin-induced smooth muscle cell hyperplasia (histology, in words)” value [2] was “reduction in the saponin-induced vascular hyperplasia” and the “effect on saponin-induced smooth muscle cell hyperplasia (histology, in words)” value ([2]; listed as sulfated mannopentaose phosphate) was “substantial reduction in smooth muscle cell hyperplasia”. The “inhibition of vascular hyperplasia compared with untreated control animals” value ([2]; saponin model, 35 mg/kg/day via miniosmotic pumps, histological examination of carotid arteries, P=0.08) was 34%.
